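96-well plates; 48 h exposure; 5 concentrations. Endpoints by linear interpolation between flanking doses. Not reached: highest tested concentration assigned. The concentration for 50% growth inhibition is given as GI50.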 Activity calls are given as the source filed them. Cut-off read from the data, not from the text of the source: active = GI50 up to about 1.1 µM and inactive = higher.
Tests used:
Assay in all cases: growth of human tumour cells (NCI), 48 h
UACC-62 = system: UACC-62
NCI-H460 = system: NCI-H460
OVCAR-8 = system: OVCAR-8
HCT-116 = system: HCT-116
MDA-MB-231 = system: MDA-MB-231
Hs-578T = system: Hs-578T
RPMI-8226 = system: RPMI-8226
UO-31 = system: UO-31
SW-620 = system: SW-620
SNB-19 = system: SNB-19
IGROV-1 = system: IGROV-1
K562 = system: K562
TK-10 = system: TK-10
CAKI-1 = system: CAKI-1
SR = system: SR
HOP-92 = system: HOP-92
HT-29 = system: HT-29
MDA-N = system: MDA-N
HCC 2998 = system: HCC 2998

Measured: GI50

O=C(/C=C/c1ccc(O)cc1)NCCc1ccc(O)cc1 [N-P-COUMAROYL TYRAMINE]
inactive: UACC-62 7.41 µM | NCI-H460 11.2 µM | OVCAR-8 > 12.5 µM | HCT-116 > 12.5 µM | MDA-MB-231 > 12.5 µM | Hs-578T > 12.5 µM | RPMI-8226 6.95 µM | UO-31 11.1 µM | SW-620 > 12.5 µM | SNB-19 > 12.5 µM | IGROV-1 8.3 µM | K562 5.6 µM | TK-10 3.72 µM | CAKI-1 10.2 µM | SR 4.02 µM | HOP-92 5.14 µM | HT-29 > 12.5 µM | MDA-N > 12.5 µM

O=C1CSC2=NC3=C(CSC/C3=C\c3ccc(Cl)cc3)C(c3ccc(Cl)cc3)N12 (centres undefined)
inactive: UACC-62 24.9 µM | NCI-H460 28.5 µM | OVCAR-8 8.43 µM | HCT-116 5.86 µM | MDA-MB-231 21.8 µM | HCC 2998 25.6 µM | RPMI-8226 17.5 µM | UO-31 12.9 µM | SW-620 23.8 µM | SNB-19 37.2 µM | IGROV-1 41.9 µM | K562 21.1 µM | TK-10 32 µM | CAKI-1 37.2 µM | SR 14.9 µM | HOP-92 10.3 µM | HT-29 20.2 µM | MDA-N > 10 µM

C/C=C(/COC(C)=O)C(=O)OC1C=C(C=O)C(C)(C)C=C1C (centres undefined)
inactive: UACC-62 > 100 µM | NCI-H460 > 100 µM | OVCAR-8 > 100 µM | HCT-116 > 100 µM | MDA-MB-231 > 100 µM | Hs-578T > 100 µM | HCC 2998 > 100 µM | UO-31 > 100 µM | SW-620 > 100 µM | SNB-19 > 100 µM | IGROV-1 96.6 µM | K562 43.5 µM | TK-10 > 100 µM | CAKI-1 > 100 µM | SR 27.5 µM | HOP-92 > 100 µM | HT-29 > 100 µM | MDA-N > 100 µM

COc1ccc(C(=O)Sc2c(-c3ccccc3)c(=O)n(-c3ccccc3)c(=S)n2-c2ccccc2)cc1
inactive: UACC-62 > 100 µM | NCI-H460 > 100 µM | OVCAR-8 21.3 µM | HCT-116 29.7 µM | MDA-MB-231 > 100 µM | Hs-578T > 100 µM | HCC 2998 > 100 µM | SW-620 > 100 µM | SNB-19 43.5 µM | IGROV-1 10.1 µM | K562 37.1 µM | TK-10 > 100 µM | CAKI-1 > 100 µM | SR 25.4 µM | HOP-92 24.1 µM | HT-29 > 100 µM | MDA-N > 100 µM

COc1cc([C@@H]2c3cc4c(cc3[C@H](OC3OC5COC(C(C)C)OC5C(O)C3O)C3COC(=O)[C@@H]32)OCO4)cc(OC)c1O (some centres undefined)
inactive: UACC-62 11.1 µM | NCI-H460 2.04 µM | OVCAR-8 9.31 µM | HCT-116 3.85 µM | MDA-MB-231 14.1 µM | Hs-578T 9.71 µM | RPMI-8226 5.2 µM | UO-31 10.2 µM | SW-620 6.53 µM | SNB-19 14.6 µM | IGROV-1 5.21 µM | K562 8.61 µM | TK-10 23.5 µM | CAKI-1 4.27 µM | SR 1.47 µM | HOP-92 11.9 µM | HT-29 2.97 µM | MDA-N 2.4 µM

O=c1cc2oc3ccc4ccccc4c3cc-2c(=O)[nH]1
inactive: UACC-62 17.9 µM | NCI-H460 22.9 µM | OVCAR-8 1.56 µM | HCT-116 17.1 µM | Hs-578T 24.4 µM | HCC 2998 16.9 µM | RPMI-8226 2.96 µM | UO-31 11 µM | SW-620 1.87 µM | SNB-19 14 µM | IGROV-1 14.2 µM | K562 19.8 µM | CAKI-1 15.3 µM | SR 2.62 µM | HT-29 16 µM | MDA-N 11.3 µM

COC(=O)c1c(C)c2c(c(C)c1C(=O)OC)-c1c(C)ccc3ccc(C)c-2c13
inactive: UACC-62 47.5 µM | NCI-H460 18.6 µM | OVCAR-8 47.1 µM | HCT-116 50.1 µM | MDA-MB-231 3.94 µM | Hs-578T 23.7 µM | RPMI-8226 7.28 µM | UO-31 47.8 µM | SW-620 32.9 µM | SNB-19 > 87.5 µM | IGROV-1 54 µM | K562 3.03 µM | TK-10 > 65.8 µM | CAKI-1 > 100 µM | SR 6.78 µM | HT-29 7.82 µM | MDA-N 61.5 µM

CCC(C)C(=O)OC1CC2(C)C(c3ccoc3)OC(=O)CC23OC2(C)OC34C(OC(=O)C(C)C)C3(O)C(OC(=O)C5(C)OC5C)C5(C)CC3(O)C(C)(C5CC(=O)OC)C14O2 (centres undefined)
inactive: UACC-62 86.9 µM | NCI-H460 36.3 µM | OVCAR-8 52.6 µM | HCT-116 54.7 µM | MDA-MB-231 56.2 µM | Hs-578T 14.5 µM | HCC 2998 66.8 µM | UO-31 35.9 µM | SW-620 50 µM | SNB-19 32.6 µM | IGROV-1 64.4 µM | K562 27.8 µM | TK-10 65 µM | CAKI-1 57.3 µM | SR 24.1 µM | HOP-92 36.8 µM | HT-29 29.7 µM | MDA-N 47.1 µM

O=C1c2ccccc2-c2ccc(/N=N/c3c(O)ccc4ccccc34)cc21
inactive: UACC-62 > 100 µM | OVCAR-8 > 100 µM | HCT-116 > 100 µM | MDA-MB-231 > 100 µM | Hs-578T > 100 µM | RPMI-8226 > 100 µM | UO-31 > 100 µM | SW-620 > 100 µM | SNB-19 > 100 µM | IGROV-1 > 100 µM | K562 > 100 µM | TK-10 > 100 µM | CAKI-1 > 100 µM | HOP-92 > 100 µM | HT-29 > 100 µM | MDA-N > 100 µM

Cc1ccc(S(=O)(=O)N(CCN2C(=O)c3ccccc3C2=O)c2cc3c4c(c2)Oc2cc(N(CCN5C(=O)c6ccccc6C5=O)S(=O)(=O)c5ccc(C)cc5)cc5c2C4(C)c2c(cc(N(CCN4C(=O)c6ccccc6C4=O)S(=O)(=O)c4ccc(C)cc4)cc2O5)O3)cc1
inactive: UACC-62 > 100 µM | NCI-H460 > 100 µM | OVCAR-8 > 100 µM | HCT-116 > 100 µM | MDA-MB-231 4.89 µM | Hs-578T > 100 µM | RPMI-8226 > 100 µM | UO-31 > 100 µM | SW-620 > 100 µM | SNB-19 > 100 µM | IGROV-1 57.3 µM | K562 > 100 µM | TK-10 > 100 µM | CAKI-1 > 100 µM | SR > 100 µM | HT-29 > 100 µM | MDA-N > 100 µM

C[C@]12CC[C@@H]3c4cc(Br)c(O)c(Br)c4CC[C@H]3[C@@H]1CCC2=O
inactive: UACC-62 16.3 µM | NCI-H460 21.4 µM | OVCAR-8 19 µM | HCT-116 27.5 µM | MDA-MB-231 32.2 µM | Hs-578T 21.9 µM | HCC 2998 13.9 µM | UO-31 11.9 µM | SW-620 32.9 µM | IGROV-1 38.1 µM | K562 18 µM | TK-10 17.6 µM | CAKI-1 18.9 µM | HOP-92 34.9 µM | HT-29 46.1 µM | MDA-N 33.1 µM
